# Test results from patent US12497396B2, “Nitrogen-containing heterocyclic derivatives, method therefor and application therefor as inhibitors of KRAS G12C for the treatment of cancers” (SHANGHAI HANSOH BIOMEDICAL CO., LTD., priority 2019, dated 2025).
# Columns and labels:
# [1] = biological target: T1, CYP1A2 (Homo sapiens, UniProt P05177); experiment: CYP enzyme single point inhibition, human liver microsomes, 1A2; format: in vitro ADME; conditions: single point method
# T1 construct: from tissue; host or cells: human liver microsomes
# T1 sequence (P05177 1-516): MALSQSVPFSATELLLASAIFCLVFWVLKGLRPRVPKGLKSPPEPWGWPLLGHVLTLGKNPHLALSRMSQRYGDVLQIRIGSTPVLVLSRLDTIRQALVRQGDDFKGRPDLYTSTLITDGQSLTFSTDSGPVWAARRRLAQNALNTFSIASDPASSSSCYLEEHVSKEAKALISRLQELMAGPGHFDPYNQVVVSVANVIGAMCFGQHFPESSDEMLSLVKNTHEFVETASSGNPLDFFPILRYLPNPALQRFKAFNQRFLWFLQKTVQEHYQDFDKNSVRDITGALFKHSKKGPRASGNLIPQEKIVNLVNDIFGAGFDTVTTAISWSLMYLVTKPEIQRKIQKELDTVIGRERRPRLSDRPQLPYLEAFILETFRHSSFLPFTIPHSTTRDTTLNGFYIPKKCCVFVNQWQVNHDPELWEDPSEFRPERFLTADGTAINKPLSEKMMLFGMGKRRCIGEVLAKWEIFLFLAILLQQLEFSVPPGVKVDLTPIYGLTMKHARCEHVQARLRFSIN
# Experimental: Using human liver microsomal incubation system, the inhibition of CYP450 enzyme subtypes by compounds was rapidly predicted by single point method. 2.5 mM NADPH: 100 mM phosphate buffer was added to 4.165 mg of NADPH (reduced nicotinamide adenine dinucleotide phosphate) to 2 mL. 0.25 mg/mL microsome: 4 mL of 100 mM phosphate buffer was added to 50 μL of 20 mg/mL microsome and mixed well. The embodiment compound to be tested was weighed and diluted to 10 mM with DMSO and then diluted to 100 μM with 100 mM phosphate buffer. • 1. In a 96-well plate, 40 μL of liver microsomes, 10 μL of substrate, 10 μL of compound to be tested were pre-incubated for 3 min. • 2. 40 μL of NADPH was added. • 3. 300 μL of acetonitrile termination solution containing internal standard was added at 20 min. • 4. Centrifugal injection.
# [2] = biological target: T2, CYP2D6 (Homo sapiens, UniProt P10635); experiment: CYP enzyme single point inhibition, human liver microsomes, 2D6; format: in vitro ADME; conditions: single point method
# T2 construct: from tissue; host or cells: human liver microsomes
# T2 sequence (P10635 whole entry): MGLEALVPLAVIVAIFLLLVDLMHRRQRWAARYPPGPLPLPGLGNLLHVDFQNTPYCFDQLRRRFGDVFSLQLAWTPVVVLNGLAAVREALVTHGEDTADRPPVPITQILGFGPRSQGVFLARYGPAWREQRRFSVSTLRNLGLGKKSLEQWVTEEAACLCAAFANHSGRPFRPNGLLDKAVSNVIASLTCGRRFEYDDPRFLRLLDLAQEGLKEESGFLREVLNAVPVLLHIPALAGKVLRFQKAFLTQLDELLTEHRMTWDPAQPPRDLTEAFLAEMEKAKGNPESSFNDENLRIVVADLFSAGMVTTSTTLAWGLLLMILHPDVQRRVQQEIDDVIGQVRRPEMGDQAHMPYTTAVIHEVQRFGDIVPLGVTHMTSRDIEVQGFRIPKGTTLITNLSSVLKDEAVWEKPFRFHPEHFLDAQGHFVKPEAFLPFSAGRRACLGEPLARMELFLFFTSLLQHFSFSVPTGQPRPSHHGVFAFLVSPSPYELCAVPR
# Experimental: (§1) Using human liver microsomal incubation system, the inhibition of CYP450 enzyme subtypes by compounds was rapidly predicted by single point method.
# (§2) 2.5 mM NADPH: 100 mM phosphate buffer was added to 4.165 mg of NADPH (reduced nicotinamide adenine dinucleotide phosphate) to 2 mL. 0.25 mg/mL microsome: 4 mL of 100 mM phosphate buffer was added to 50 μL of 20 mg/mL microsome and mixed well.
# (§3) The embodiment compound to be tested was weighed and diluted to 10 mM with DMSO and then diluted to 100 μM with 100 mM phosphate buffer.
# (§4) • 1. In a 96-well plate, 40 μL of liver microsomes, 10 μL of substrate, 10 μL of compound to be tested were pre-incubated for 3 min. • 2. 40 μL of NADPH was added. • 3. 300 μL of acetonitrile termination solution containing internal standard was added at 20 min. • 4. Centrifugal injection.
# [3] = biological target: T3, CYP2C19 (Homo sapiens, UniProt P33261); experiment: CYP enzyme single point inhibition, human liver microsomes, 2C19; format: in vitro ADME; conditions: single point method
# T3 construct: from tissue; host or cells: human liver microsomes
# T3 sequence (P33261 whole entry): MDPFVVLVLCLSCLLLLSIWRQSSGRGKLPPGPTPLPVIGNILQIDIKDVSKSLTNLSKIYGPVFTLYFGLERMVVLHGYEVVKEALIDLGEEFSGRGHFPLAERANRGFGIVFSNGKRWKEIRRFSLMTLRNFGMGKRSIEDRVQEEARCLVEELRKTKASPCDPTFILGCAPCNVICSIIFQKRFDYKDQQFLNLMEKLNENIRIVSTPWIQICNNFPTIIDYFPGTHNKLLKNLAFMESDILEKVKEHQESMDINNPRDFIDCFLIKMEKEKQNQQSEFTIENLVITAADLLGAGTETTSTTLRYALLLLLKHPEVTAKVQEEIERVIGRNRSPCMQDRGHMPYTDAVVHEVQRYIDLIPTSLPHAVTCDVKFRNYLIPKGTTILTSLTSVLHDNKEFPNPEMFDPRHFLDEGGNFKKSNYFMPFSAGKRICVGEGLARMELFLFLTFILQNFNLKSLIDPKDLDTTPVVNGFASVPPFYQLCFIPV
# Experimental: as §1, §2, §3, §4
# [4] = in vivo; conditions: male, Balb/c, mouse, po, 10 mg/kg
# Experimental: 5 g of Hydroxyethyl cellulose (HEC, CMC-Na, viscosity: 800-1200 Cps) was weighed, dissolved in 1000 mL of purified water, and 10 g of Tween 80 was added. The mixture was mixed well to form a clear solution.
# The embodiment compounds were weighed and added into 4-mL glass bottles, respectively, 2.4 mL of the solution was added, and ultrasound was performed for 10 minutes to obtain a colorless clear solution with a concentration of 1 mg/mL.
# Balb/C mice, males; PO, after overnight fasting, respectively, at a dose of 10 mg/kg, administered in a volume of 10 mL/kg.
# Blood samples were collected before administration and 0.083 h, 0.25 h, 0.5 h, 1 h, 2 h, 4 h, 6 h and 8 h after administration, the blood was placed in EDTA-2K tube, centrifuged at 4° C. 6000 rpm for 6 min to separate plasma, and stored at −80° C.; food was consumed 4 hours after drug administration.
# [5] = system: human pancreatic cancer cell MiaPaca 2 xenograft; experiment: Tumor inhibition on MiaPaca 2 transplanted tumor (CDX) model; format: in vivo, BALB/c nude mice; conditions: for TGI (%) Day 21 / tumor volume (mm^3, Mean ± SD) Day 21 / ΔT/ΔC(%) Day 21: Day 21, 6 mg/kg QD×3 w oral; for tumor volume (mm^3, Mean ± SD) Day 0: baseline Day 0, 6 mg/kg QD×3 w oral
# Experimental: MiaPaca 2 cells were removed from the cell bank, revived and added to DMEM medium (containing 10% FBS, 1% Glu, 1% P/S) and incubated in a CO2 incubator (incubator temperature was 37° C., CO2 concentration was 5%). After the cells were spread to 80-90% of the bottom of the culture flask, the cells were continued to be cultured in the CO2 incubator. The process was repeated until the number of cells met the in vivo pharmacological inoculation requirement, and the cells in logarithmic growth period were collected and counted with an automatic cell counter, resuspended with PBS and Matrigel (volume ratio 1:1) according to the count results, made into a cell suspension (the density was 8×10^7/mL), and placed in an ice box for use.
# BALB/c nude mice, female, 6-8 weeks old, weighing about 18-22 g. The mice were kept in an environment free of special pathogens and in a single ventilated cage with 5 mice in each cage. All cages, bedding and water were sterilized before use, and all animals had free access to standard certified commercial laboratory diets. Nude mice were labeled with disposable universal ear tags for mice and rats before the start of the experiment, and the skin of the inoculation site was disinfected with 75% medical alcohol before inoculation, 0.1 mL (containing 8*10^6 cells) of MiaPaca 2 tumor cells were inoculated subcutaneously on the right back of each mouse. When the tumor volume reached 100-200 mm^3, the group administration was started. The tested compounds were administered daily by oral intragastric administration, dosage/frequency (6 mg/kg QD×3 w), and the efficacy of each group at the end of the experiment was shown in Table 29.
# The tumor volume (mm^3) was measured with vernier caliper twice a week, the calculation formula was V=[…], wherein D and d were the long and short diameter of the tumor, respectively. The anti-tumor efficacy was determined by dividing the average tumor increased volume of the compound-treated animals by the average tumor increased volume of the untreated animals. The formula of tumor inhibition rate is: TGI (%)=1−[(Vt−V0) administration group/(Vt−V0) solvent control group]*100%. After the experiment, all animals were euthanized.
SMILES,IC50 [1] [nM],IC50 [2] [nM],IC50 [3] [nM],AUC(0-inf) [4] [ng·h/mL],Cmax [4] [ng/mL],MRT [4] [min],Tmax [4] [min],half-life [4] [min],TGI (%) Day 21 [5] [%],"tumor volume (mm^3, Mean ± SD) Day 21 [5] [mm^3]",ΔT/ΔC(%) Day 21 [5] [%],"tumor volume (mm^3, Mean ± SD) Day 0 [5] [mm^3]"
"C=CC(=O)N1C[C@H](C)N(c2nc(=O)n(-c3c(SC)ccnc3C(C)C)c3nc(-c4c(O)cccc4F)c(F)cc23)C[C@H]1C (single isomer, unassigned) [Embodiment 114-1]",> 100,> 100,> 100,1370,1820,42,15,36,162.36,67 ± 34,−62.36,177 ± 38
"C=CC(=O)N1C[C@H](C)N(c2nc(=O)n(-c3c(SC)ccnc3C(C)C)c3nc(-c4c(N)ccc(Cl)c4F)c(Cl)cc23)C[C@H]1C (single isomer, unassigned) [Embodiment 165-1]",66.7,21.2,28.8,347,264,90,15,60,176.76,41 ± 19,−76.76,178 ± 34
